Several values for one entry are separate records, joined by “and”; a condition that tells them apart may be missing. Equal values may be shown once.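 Growth conditions: 96-well plates. Treatment: test compound, 48 hours, 5 concentrations. Analysis: linear interpolation between bracketing concentrations; unreached endpoints set to highest concentration. Abbreviation: GI50, concentration required for 50% inhibition of growth. Definition used: TGI = concentration required for complete inhibition of growth.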
How the values were obtained:
Experiment in all cases: DTP human tumour cell line panel, 48 h
[1] = system: IGROV1 ovarian
[2] = system: SN12C renal
[3] = system: NCI-H460 lung
[4] = system: KM12 colon
[5] = system: SF-539 CNS
[6] = system: HOP-62 NSCLC
[7] = system: 786-0 renal
[8] = system: DMS 114 small cell lung
[9] = system: HOP-18 NSCLC
[10] = system: MDA-MB-231 breast

| Compound | TGI [1] | TGI [2] | TGI [3] | TGI [4] | TGI [5] | TGI [6] | TGI [7] | TGI [8] | TGI [9] | GI50 [1] | GI50 [10] | TGI [10] | GI50 [2] | GI50 [3] | GI50 [4] | GI50 [5] | GI50 [6] | GI50 [7] |
| --- | --- | --- | --- | --- | --- | --- | --- | --- | --- | --- | --- | --- | --- | --- | --- | --- | --- | --- |
| COc1cc(C(C)c2cc3c(cc2OCCNC(=O)COc2cc4c(cc2C(C)c2cc(OC)c(OC)c(OC)c2)OCO4)OCO3)cc(OC)c1OC (configuration not stated) | > 100 µM | > 100 µM | 49 µM | > 100 µM | > 100 µM | > 100 µM | > 100 µM | > 100 µM |  |  |  |  |  |  |  |  |  |  |
| COc1ccc2c(c1)NC1(O)c3ccccc3C(=O)C21O (configuration not stated) | > 100 µM | > 100 µM | > 100 µM | > 100 µM | > 100 µM | > 100 µM | > 100 µM | > 100 µM | > 100 µM |  |  |  |  |  |  |  |  |  |
| N/N=C(\c1nc2ccc(Cl)cc2[nH]c1=O)C(O)c1ccc(Cl)c(Cl)c1 (configuration not stated) | > 100 µM | > 100 µM | > 100 µM | > 100 µM | > 100 µM | > 100 µM | > 100 µM | > 100 µM |  |  |  |  |  |  |  |  |  |  |
| CCCN(CCC)C(=O)c1nc(N)nc(-c2ccc(OC)cc2)c1-c1ccc(OC)cc1 | > 100 µM | > 100 µM | > 100 µM | > 100 µM | > 100 µM |  | > 100 µM | > 100 µM | > 100 µM |  |  |  |  |  |  |  |  |  |
| CC(C)(C)N/N=C(\C(=O)Nc1nc(=S)[nH][nH]1)C1C(=O)Nc2ccccc2S1=O (configuration not stated) | > 100 µM | > 100 µM | > 100 µM | > 100 µM | > 100 µM | > 100 µM | > 100 µM | > 100 µM | > 100 µM |  |  |  |  |  |  |  |  |  |
| O=C(Nc1ccccc1-c1nn(CN2CCNCC2)c(=S)n(CN2CCNCC2)c1=O)C(F)(F)F | 46.5 µM | 46.1 µM | 53.3 µM | 40.7 µM | 35.3 µM | 46.6 µM | 35.1 µM | 34 µM | 63.9 µM |  |  |  |  |  |  |  |  |  |
| Cc1nc(/C=C2\C(=O)C=Cc3ccccc32)c(O)o1 | > 100 µM | > 100 µM | > 100 µM | > 100 µM | > 100 µM | > 100 µM | > 100 µM | > 100 µM | > 100 µM |  |  |  |  |  |  |  |  |  |
| CC(=O)NNc1nc(C)c(C(=O)/C=C/c2ccc(Cl)cc2)s1 | > 100 µM |  | > 100 µM | > 100 µM | > 100 µM | > 100 µM | > 100 µM | > 100 µM | > 100 µM |  |  |  |  |  |  |  |  |  |
| COc1ccc2oc(-c3ccc(OC)c(OC)c3OC)cc(=O)c2c1 | > 100 µM | > 100 µM |  |  | > 100 µM | > 100 µM | > 100 µM | > 100 µM |  |  |  |  |  |  |  |  |  |  |
| O=S(=O)(N=NC=C1c2ccccc2N(O)c2ccccc21)c1ccc(Cl)cc1 | > 100 µM | > 100 µM | > 100 µM | > 100 µM |  | > 100 µM | > 100 µM | > 100 µM | > 100 µM |  |  |  |  |  |  |  |  |  |
| COC1CCC(OC)C(C2(C3CC(OC)CCC3OC)OC(=O)c3ccccc32)C1 (configuration not stated) | > 100 µM | > 100 µM | > 100 µM | > 100 µM | > 100 µM | > 100 µM | > 100 µM | > 100 µM | > 100 µM |  |  |  |  |  |  |  |  |  |
| COC(=O)/C(C#N)=C(\N)C(Cl)(Cl)Cl |  | 12.7 µM | 16.1 µM | 15.8 µM |  | 39 µM | 14.4 µM | 11.1 µM |  |  |  |  |  |  |  |  |  |  |
| COC(=O)C1CC(OC(C)=O)C=C2C(=O)CCC21 (configuration not stated) | 82.6 µM | 41.9 µM | 35.2 µM | 31.6 µM | 50.6 µM | 61 µM | 51 µM | 30.8 µM | 64.3 µM |  |  |  |  |  |  |  |  |  |
| CCOC(=O)C12C(C(=O)OC)=C(C)N(NC(=O)Nc3ccccc3)C1(N)N(NC(=O)Nc1ccccc1)C(C)=C2C(=O)OC (configuration not stated) | > 100 µM | > 100 µM | > 94.2 µM | 47.8 µM | 37.9 µM | 49 µM | > 100 µM | 83.6 µM | > 86 µM |  |  |  |  |  |  |  |  |  |
| COc1cc(NS(C)(=O)=O)ccc1NCc1c2ccccc2nc2ccccc12 | > 100 µM | > 100 µM | > 100 µM | > 100 µM | 65.2 µM |  | > 100 µM | 58.2 µM |  |  |  |  |  |  |  |  |  |  |
| CCOc1ccc(NCC2CC/C(=C\c3ccccc3OC)C2=O)cc1 (configuration not stated) | 25.5 µM | 19.4 µM |  | 9.1 µM | 23.9 µM | > 57.8 µM | 8.3 µM | 28.2 µM | 28.8 µM |  |  |  |  |  |  |  |  |  |
| Cc1cccc(C)c1N1C(=O)C(=O)C(c2nc3ccccc3s2)/C(=N/NC(=O)c2ccccc2O)C1=O (configuration not stated) | > 82.2 µM | > 100 µM | > 92 µM | > 100 µM | 59.5 µM | > 100 µM | > 66 µM | 60.9 µM | 88.6 µM |  |  |  |  |  |  |  |  |  |
| Cc1ccc(S(=O)(=O)c2ccc(C)cc2[N+](=O)[O-])cc1 | > 100 µM | > 100 µM | > 100 µM | > 100 µM | > 100 µM | > 100 µM | > 100 µM | 73.3 µM | > 100 µM |  |  |  |  |  |  |  |  |  |
| CC(C(=O)c1ccccc1)C1(O)C(=O)Nc2ccc(Cl)cc21 (configuration not stated) | > 100 µM | > 100 µM | > 100 µM | > 100 µM | > 100 µM | > 100 µM | > 100 µM | > 100 µM | > 100 µM |  |  |  |  |  |  |  |  |  |
| CC1=NOC(=O)/C1=C/c1ccc([N+](=O)[O-])cc1 | > 100 µM | > 100 µM | > 100 µM | > 100 µM | > 100 µM | > 100 µM | > 100 µM | > 100 µM | > 100 µM |  |  |  |  |  |  |  |  |  |
| C=CCC1(C(=O)OC(C)(C)C)C(OC)=C(C(=O)OC(C)(C)C)C2C1C(C(=O)OC(C)(C)C)=C(OC)C2(CC=C)C(=O)OC(C)(C)C (configuration not stated) | > 100 µM | > 100 µM |  | > 100 µM | > 100 µM |  | > 100 µM | > 100 µM | > 100 µM |  |  |  |  |  |  |  |  |  |
| COC(=O)Nc1nc2ccc(C(=O)c3ccccc3)cc2[nH]1 | > 100 µM and 52.9 µM | > 100 µM |  |  |  | > 100 µM | > 100 µM |  |  | 1010 nM and 565 nM | 1050 nM and 1250 nM | > 100 µM | 1090 nM and 620 nM | 397 nM and 330 nM | 402 nM and 130 nM | 577 nM and 238 nM | 610 nM and 3190 nM | 593 nM and 720 nM |
| Cn1c(-c2ccccc2)c(/C=C/C2=[N+](C)c3ccccc3C2(C)C)c2ccccc21 | 6.07 µM | 12.8 µM | 8.24 µM | 1.94 µM | 14.2 µM | 12.6 µM | 9.02 µM |  |  | 1870 nM | 2180 nM | 22.8 µM | 1700 nM | 580 nM | 429 nM | 2590 nM | 2150 nM | 2180 nM |
